Values of other authors in patent US9238007B2, “Method for the production of a medicament containing tadalafil” (RATIOPHARM GMBH, priority 2007, dated 2016).

Details: according to WO 01/08687

solubility in water: about 2 μg/ml
Compound: CN1CC(=O)N2[C@H](c3ccc4c(c3)OCO4)c3[nH]c4ccccc4c3C[C@@H]2C1=O [Tadalafil, (6R,12aR)-6-(1,3-benzodioxol-5-yl)-2-methyl-1,2,3,4,6,7,12,12a-octahydropyrazino [2,1 :6,1]pyrido[3,4-b]indole-1,4-dione]
